Source: ChEMBL document CHEMBL1240295, “Specificity and mechanism of action of some commonly used protein kinase inhibitors” (Biochem J, 2000)

Columns and labels:
[1] = Inhibition of PHK from rabbit skeletal muscle; assay type: tissue-based, Oryctolagus cuniculus, Muscle tissue
[2] = Inhibition of bovine heart PKA; set-up: species or system Bos taurus
Oryctolagus cuniculus [3] = species: Oryctolagus cuniculus; conditions: at 10 µM
Description: Inhibition of rabbit MKK1 expressed in Escherichia coli at 10 uM

[4] = molecular target: Mitogen-activated protein kinase 1 (Homo sapiens) (UniProt P28482); conditions: at 10 µM
Sequence of Mitogen-activated protein kinase 1 (Homo sapiens) (P28482 whole entry): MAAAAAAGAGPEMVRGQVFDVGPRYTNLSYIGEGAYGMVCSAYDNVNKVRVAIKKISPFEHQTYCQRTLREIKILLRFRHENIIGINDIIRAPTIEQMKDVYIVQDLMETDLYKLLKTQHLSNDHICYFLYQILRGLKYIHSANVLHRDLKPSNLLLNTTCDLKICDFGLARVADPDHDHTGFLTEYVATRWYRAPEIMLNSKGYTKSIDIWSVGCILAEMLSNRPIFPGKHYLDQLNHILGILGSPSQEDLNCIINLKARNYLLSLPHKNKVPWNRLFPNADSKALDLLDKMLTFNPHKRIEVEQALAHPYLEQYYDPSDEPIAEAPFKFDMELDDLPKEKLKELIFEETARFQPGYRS
Description: Inhibition of Gst-tagged human MAPK2/ERK2 expressed in Escherichia coli at 10 uM

[5] = molecular target: Mitogen-activated protein kinase 8 (Homo sapiens) (UniProt P45983); conditions: at 10 µM
Description: Inhibition of Gst-tagged human JNK1a1 expressed in Escherichia coli at 10 uM

[6] = molecular target: Mitogen-activated protein kinase 14 (Homo sapiens) (UniProt Q16539); conditions: at 10 µM
Sequence of Mitogen-activated protein kinase 14 (Homo sapiens) (Q16539 whole entry): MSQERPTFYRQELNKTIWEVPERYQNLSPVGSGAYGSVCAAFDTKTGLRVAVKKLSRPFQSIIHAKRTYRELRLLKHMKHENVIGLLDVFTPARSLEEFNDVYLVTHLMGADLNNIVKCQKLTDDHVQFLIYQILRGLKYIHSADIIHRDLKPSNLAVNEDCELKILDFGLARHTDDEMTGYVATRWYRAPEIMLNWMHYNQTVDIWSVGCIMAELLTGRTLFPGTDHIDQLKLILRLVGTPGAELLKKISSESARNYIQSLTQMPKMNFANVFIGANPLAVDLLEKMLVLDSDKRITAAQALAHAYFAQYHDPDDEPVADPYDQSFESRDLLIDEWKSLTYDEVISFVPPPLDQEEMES
Description: Inhibition of Gst-tagged human SAPK2a/p38 expressed in Escherichia coli at 10 uM

[7] = molecular target: Mitogen-activated protein kinase 11 (Homo sapiens) (UniProt Q15759); conditions: at 10 µM
Sequence of Mitogen-activated protein kinase 11 (Homo sapiens) (Q15759 whole entry): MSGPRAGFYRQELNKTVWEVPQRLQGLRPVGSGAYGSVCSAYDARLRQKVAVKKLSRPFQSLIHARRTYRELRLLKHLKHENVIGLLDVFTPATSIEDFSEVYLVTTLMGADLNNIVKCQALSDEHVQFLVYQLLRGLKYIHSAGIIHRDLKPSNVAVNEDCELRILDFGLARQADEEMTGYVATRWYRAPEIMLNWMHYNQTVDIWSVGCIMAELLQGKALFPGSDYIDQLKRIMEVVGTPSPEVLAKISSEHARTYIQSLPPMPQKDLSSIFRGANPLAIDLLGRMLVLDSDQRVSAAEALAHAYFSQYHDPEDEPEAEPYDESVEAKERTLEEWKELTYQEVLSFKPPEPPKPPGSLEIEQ
Description: Inhibition of Gst-tagged human SAPK2b/p38--beta-2 expressed in Escherichia coli at 10 uM

[8] = molecular target: T1, Mitogen-activated protein kinase 12 (Homo sapiens) (UniProt P53778); conditions: at 10 µM
T1 sequence (whole entry): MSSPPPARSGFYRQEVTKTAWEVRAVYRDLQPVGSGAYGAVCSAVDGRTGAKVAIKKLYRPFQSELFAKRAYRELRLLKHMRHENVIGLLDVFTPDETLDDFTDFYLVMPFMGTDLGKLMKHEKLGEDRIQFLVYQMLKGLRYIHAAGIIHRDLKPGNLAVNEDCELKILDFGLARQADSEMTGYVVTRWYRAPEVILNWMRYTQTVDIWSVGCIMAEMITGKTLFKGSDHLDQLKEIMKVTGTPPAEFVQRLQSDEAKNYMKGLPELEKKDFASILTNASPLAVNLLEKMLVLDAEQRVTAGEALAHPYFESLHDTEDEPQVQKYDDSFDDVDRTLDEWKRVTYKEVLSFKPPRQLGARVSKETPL
Description: Inhibition of Gst-tagged human SAPK3/p38gamma expressed in Escherichia coli at 10 uM

[9] = molecular target: T2, Mitogen-activated protein kinase 13 (Homo sapiens) (UniProt O15264); conditions: at 10 µM
T2 sequence (whole entry): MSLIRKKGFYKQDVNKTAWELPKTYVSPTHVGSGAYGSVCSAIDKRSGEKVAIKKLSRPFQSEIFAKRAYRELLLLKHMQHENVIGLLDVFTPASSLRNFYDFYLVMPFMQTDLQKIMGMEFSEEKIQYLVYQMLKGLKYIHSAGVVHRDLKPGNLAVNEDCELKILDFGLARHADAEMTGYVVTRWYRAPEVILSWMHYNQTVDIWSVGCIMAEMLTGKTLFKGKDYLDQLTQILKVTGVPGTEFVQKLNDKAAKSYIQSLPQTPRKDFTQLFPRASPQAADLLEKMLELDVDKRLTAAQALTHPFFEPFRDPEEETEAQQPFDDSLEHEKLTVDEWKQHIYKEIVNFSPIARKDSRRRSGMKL
Description: Inhibition of Gst-tagged human SAPK4/p38delta expressed in Escherichia coli at 10 uM

Oryctolagus cuniculus [10] = species: Oryctolagus cuniculus; conditions: Muscle tissue, at 10 µM
Description: Inhibition of MAPKAPK1b from rabbit skeletal muscle at 10 uM

[11] = molecular target: MAP kinase-activated protein kinase 2 (Homo sapiens, UniProt P49137); conditions: at 10 µM
Sequence of MAP kinase-activated protein kinase 2 (P49137 whole entry, looked up): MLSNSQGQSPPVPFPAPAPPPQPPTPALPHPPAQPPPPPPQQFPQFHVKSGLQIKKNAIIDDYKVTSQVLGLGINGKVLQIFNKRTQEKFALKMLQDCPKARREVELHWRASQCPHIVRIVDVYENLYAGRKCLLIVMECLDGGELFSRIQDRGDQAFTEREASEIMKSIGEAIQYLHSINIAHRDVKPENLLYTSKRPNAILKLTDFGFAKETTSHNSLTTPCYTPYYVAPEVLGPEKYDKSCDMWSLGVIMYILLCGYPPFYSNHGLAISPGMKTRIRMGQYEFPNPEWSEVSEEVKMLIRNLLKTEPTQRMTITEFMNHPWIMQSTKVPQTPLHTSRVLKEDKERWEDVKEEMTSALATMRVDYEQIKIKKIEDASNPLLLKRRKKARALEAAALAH
Description: Inhibition of Gst-tagged human MAPKAPK2 expressed in Escherichia coli at 10 uM

[12] = molecular target: Ribosomal protein S6 kinase alpha-5 (Homo sapiens, UniProt O75582); conditions: Sf9, at 10 µM
Sequence of Ribosomal protein S6 kinase alpha-5 (O75582 whole entry, looked up): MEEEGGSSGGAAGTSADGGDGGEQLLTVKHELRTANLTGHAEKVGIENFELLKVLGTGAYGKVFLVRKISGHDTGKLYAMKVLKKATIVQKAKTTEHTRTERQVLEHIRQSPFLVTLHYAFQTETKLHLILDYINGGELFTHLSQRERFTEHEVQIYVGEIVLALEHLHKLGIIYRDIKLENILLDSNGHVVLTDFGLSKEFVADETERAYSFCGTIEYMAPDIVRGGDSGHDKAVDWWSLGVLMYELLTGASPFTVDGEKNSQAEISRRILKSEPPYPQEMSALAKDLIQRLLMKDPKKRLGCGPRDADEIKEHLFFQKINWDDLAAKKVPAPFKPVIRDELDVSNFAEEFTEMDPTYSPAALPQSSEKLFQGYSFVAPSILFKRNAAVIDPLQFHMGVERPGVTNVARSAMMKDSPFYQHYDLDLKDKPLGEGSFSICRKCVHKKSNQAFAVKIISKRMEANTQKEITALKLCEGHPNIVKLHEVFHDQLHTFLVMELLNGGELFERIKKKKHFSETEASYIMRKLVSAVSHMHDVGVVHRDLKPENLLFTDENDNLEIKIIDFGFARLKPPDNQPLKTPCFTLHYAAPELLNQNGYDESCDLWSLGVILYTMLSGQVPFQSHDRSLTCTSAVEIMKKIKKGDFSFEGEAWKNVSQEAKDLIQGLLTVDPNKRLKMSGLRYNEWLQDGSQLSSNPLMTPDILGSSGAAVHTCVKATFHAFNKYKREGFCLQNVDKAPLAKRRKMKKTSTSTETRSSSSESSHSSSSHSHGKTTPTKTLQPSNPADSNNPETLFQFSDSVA
Description: Inhibition of His-tagged human MSK1 expressed in Sf9 cells at 10 uM

[13] = molecular target: T3, MAP kinase-activated protein kinase 5 (Homo sapiens) (UniProt Q8IW41); conditions: Sf9, at 10 µM
T3 sequence (whole entry): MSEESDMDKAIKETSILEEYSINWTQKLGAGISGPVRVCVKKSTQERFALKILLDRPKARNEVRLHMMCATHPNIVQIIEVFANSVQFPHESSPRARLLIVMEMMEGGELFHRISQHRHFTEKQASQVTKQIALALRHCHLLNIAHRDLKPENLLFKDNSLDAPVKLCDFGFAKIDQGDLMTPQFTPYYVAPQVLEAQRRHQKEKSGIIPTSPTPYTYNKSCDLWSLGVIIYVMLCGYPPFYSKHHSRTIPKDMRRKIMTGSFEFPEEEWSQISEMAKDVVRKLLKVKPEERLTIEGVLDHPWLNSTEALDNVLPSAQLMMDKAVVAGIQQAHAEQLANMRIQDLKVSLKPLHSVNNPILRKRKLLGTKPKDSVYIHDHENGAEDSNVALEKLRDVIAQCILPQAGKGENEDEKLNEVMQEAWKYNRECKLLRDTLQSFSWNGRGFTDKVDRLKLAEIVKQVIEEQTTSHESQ
Description: Inhibition of His-tagged human PRAK expressed in Sf9 cells at 10 uM

Bos taurus = species: Bos taurus; conditions: at 10 µM
Description: Inhibition of bovine heart PKA at 10 uM

[14] = molecular target: Protein kinase C alpha type (Homo sapiens, UniProt P17252); conditions: at 10 µM
Description: Inhibition of His-tagged human PKCalpha expressed in Escherichia coli at 10 uM

[15] = molecular target: 3-phosphoinositide-dependent protein kinase 1 (Homo sapiens) (UniProt O15530); conditions: Sf21, at 10 µM
[16] = molecular target: RAC-alpha serine/threonine-protein kinase (Homo sapiens) (UniProt P31749); conditions: Sf9, at 10 µM
Sequence of RAC-alpha serine/threonine-protein kinase (Homo sapiens) (P31749 whole entry): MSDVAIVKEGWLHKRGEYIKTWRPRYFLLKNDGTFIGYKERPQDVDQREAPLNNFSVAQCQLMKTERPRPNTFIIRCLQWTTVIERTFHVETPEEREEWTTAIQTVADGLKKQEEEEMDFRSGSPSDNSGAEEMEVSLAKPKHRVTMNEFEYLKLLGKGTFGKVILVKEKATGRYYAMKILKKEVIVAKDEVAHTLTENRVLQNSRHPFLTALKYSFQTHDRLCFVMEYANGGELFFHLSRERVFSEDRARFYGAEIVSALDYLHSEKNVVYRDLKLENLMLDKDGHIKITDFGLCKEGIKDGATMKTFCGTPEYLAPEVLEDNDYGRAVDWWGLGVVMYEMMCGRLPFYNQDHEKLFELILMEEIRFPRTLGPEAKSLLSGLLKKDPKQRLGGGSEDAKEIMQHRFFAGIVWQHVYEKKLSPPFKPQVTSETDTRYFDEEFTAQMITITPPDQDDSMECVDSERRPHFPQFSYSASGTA
Description: Inhibition of human PKBalpha expressed in SF9 cells at 10 uM

[17] = molecular target: T4, Serine/threonine-protein kinase Sgk1 (Homo sapiens) (UniProt O00141); conditions: Sf9, at 10 µM
T4 sequence (whole entry): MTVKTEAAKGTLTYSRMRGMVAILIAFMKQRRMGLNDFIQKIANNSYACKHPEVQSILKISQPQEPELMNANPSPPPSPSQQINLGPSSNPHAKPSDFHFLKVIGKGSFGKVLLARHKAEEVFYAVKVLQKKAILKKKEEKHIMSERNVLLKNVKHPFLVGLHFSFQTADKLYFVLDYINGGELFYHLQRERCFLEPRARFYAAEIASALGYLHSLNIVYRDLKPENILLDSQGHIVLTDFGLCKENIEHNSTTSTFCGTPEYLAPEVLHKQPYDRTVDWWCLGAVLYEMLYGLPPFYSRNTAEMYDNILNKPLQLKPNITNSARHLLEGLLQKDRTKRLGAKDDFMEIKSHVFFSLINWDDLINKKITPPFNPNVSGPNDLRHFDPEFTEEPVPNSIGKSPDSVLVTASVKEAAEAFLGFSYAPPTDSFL
Description: Inhibition of His-tagged human SGK expressed in Sf9 cells at 10 uM

[18] = molecular target: Ribosomal protein S6 kinase beta-1 (Homo sapiens, UniProt P23443); conditions: at 10 µM
Sequence of Ribosomal protein S6 kinase beta-1 (P23443 whole entry, looked up): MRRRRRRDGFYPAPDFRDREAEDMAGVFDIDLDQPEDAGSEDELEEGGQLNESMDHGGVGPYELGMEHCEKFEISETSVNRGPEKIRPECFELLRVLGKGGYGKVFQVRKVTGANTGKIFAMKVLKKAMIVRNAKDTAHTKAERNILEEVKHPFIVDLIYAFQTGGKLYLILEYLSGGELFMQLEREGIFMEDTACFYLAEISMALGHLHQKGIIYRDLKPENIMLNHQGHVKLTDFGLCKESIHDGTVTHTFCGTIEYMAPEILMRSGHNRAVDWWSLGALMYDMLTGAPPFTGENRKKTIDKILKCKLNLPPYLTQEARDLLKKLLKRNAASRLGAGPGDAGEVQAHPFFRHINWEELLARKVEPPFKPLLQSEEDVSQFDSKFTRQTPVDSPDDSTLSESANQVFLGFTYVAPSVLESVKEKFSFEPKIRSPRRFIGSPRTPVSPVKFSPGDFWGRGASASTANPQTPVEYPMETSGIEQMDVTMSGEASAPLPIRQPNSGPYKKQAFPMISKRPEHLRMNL
Description: Inhibition of His-tagged human S6K1 expressed in Escherichia coli at 10 uM

[19] = molecular target: Glycogen synthase kinase-3 beta (Homo sapiens, UniProt P49841); conditions: Sf21, at 10 µM
Description: Inhibition of His-tagged human GSK3b expressed in Sf21 cells at 10 uM

[20] = molecular target: Rho-associated protein kinase 2 (Rattus norvegicus) (UniProt Q62868); conditions: Sf9, at 10 µM
Sequence of Rho-associated protein kinase 2 (Rattus norvegicus) (Q62868 whole entry, looked up): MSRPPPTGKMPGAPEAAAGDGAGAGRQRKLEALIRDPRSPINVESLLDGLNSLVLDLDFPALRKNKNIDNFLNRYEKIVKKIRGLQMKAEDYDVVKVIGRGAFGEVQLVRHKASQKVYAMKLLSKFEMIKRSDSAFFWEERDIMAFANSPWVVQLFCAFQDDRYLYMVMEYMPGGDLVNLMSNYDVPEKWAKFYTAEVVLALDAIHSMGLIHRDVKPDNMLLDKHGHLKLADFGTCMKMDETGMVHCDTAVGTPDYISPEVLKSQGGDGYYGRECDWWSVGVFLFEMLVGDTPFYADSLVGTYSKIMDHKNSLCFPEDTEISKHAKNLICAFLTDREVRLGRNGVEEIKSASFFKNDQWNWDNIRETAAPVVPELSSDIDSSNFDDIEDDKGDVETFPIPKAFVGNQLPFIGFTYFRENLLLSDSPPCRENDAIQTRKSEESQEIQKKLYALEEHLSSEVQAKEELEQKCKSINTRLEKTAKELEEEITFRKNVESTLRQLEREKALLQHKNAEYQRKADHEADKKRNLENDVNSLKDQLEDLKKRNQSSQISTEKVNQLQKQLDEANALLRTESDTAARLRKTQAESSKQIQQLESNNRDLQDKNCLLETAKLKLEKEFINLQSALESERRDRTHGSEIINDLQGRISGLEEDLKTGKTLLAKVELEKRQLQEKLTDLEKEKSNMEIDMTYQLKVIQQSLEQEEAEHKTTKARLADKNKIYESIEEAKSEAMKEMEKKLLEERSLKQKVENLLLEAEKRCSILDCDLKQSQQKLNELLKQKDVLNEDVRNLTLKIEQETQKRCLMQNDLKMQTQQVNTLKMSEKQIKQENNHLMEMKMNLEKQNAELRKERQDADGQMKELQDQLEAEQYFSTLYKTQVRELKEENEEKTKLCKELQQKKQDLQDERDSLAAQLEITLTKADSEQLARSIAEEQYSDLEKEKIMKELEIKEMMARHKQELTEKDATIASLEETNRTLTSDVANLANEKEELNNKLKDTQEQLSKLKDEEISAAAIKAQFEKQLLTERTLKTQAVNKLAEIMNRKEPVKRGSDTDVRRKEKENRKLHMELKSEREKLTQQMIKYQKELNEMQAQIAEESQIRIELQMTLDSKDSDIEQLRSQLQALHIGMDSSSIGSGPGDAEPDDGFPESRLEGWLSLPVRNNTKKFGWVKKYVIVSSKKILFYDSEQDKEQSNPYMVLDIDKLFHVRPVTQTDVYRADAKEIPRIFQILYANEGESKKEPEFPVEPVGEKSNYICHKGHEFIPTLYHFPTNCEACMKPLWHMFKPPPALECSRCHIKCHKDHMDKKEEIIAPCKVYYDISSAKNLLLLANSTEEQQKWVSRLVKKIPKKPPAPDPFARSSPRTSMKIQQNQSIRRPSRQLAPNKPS
Description: Inhibition of rat ROCK2 expressed in Sf9 cells at 10 uM

Rattus norvegicus = species: Rattus norvegicus; conditions: at 10 µM
Description: Inhibition of rat liver AMPK at 10 uM

[21] = molecular target: Casein kinase II (Homo sapiens) (UniProt P67870+P68400+P19784); conditions: Sf9, at 10 µM
Description: Inhibition of His-tagged human CK2 expressed in Sf9 cells at 10 uM

Oryctolagus cuniculus [22] = species: Oryctolagus cuniculus; conditions: Muscle tissue, at 10 µM; remark: listed apart in the source
Description: Inhibition of PHK from rabbit skeletal muscle at 10 uM

[23] = molecular target: Tyrosine-protein kinase Lck (Homo sapiens) (UniProt P06239); conditions: Sf9, at 10 µM
Description: Inhibition of His-tagged human LCK expressed in Sf9 cells at 10 uM

[24] = molecular target: T5, Serine/threonine-protein kinase Chk1 (Homo sapiens) (UniProt O14757); conditions: at 10 µM
T5 sequence (whole entry): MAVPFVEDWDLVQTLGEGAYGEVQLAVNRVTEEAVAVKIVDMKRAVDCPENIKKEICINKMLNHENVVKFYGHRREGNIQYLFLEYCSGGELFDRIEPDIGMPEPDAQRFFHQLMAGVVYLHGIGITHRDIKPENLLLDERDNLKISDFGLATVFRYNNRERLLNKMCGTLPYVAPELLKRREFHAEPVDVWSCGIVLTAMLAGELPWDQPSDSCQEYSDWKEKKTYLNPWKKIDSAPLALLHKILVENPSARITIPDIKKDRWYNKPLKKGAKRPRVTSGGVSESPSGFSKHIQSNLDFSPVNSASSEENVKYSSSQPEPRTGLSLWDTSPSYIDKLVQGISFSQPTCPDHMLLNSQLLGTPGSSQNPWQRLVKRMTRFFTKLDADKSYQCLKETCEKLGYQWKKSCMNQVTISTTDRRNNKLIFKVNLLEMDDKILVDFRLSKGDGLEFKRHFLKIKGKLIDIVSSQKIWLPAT
Description: Inhibition of His-tagged human CHK1 expressed in Escherichia coli at 10 uM

## CCCCCCOC(=O)[C@@]1(O)C[C@H]2O[C@]1(C)n1c3ccccc3c3c4c(c5c6ccccc6n2c5c31)C(=O)NC4
[1]
  IC50: 0.011 µM
[2]
  IC50: 3.3 µM
Oryctolagus cuniculus [3]
  residual activity: 20%
[4]
  residual activity: 57%
[5]
  residual activity: 81%
[6]
  residual activity: 103%
[7]
  residual activity: 98%
[8]
  residual activity: 95%
[9]
  residual activity: 95%
Oryctolagus cuniculus [10]
  level, % of control: 23%
[11]
  residual activity: 62%
[12]
  residual activity: 39%
[13]
  residual activity: 58%
Bos taurus
  residual activity: 39%
[14]
  residual activity: 87%
[15]
  residual activity: 7%
[16]
  residual activity: 36%
[17]
  residual activity: 29%
[18]
  residual activity: 66%
[19]
  residual activity: 39%
[20]
  residual activity: 84%
Rattus norvegicus
  residual activity: 22%
[21]
  residual activity: 95%
Oryctolagus cuniculus [22]
  level, % of control: 0%
[23]
  residual activity: 46%
[24]
  residual activity: 13%
